Measured values: patent US10376520B2, “Methods for the treatment of cardiovascular disorders” (Galapagos NV, priority 2015, dated 2019)

System: RA patients
Assay: Atherogenic index, Study 2 (RA patients, monotherapy)
Assay type: in vivo, human
Experimental: As used herein, the term ‘atherogenic index’ refers to
Double-blind, placebo-controlled, monotherapy study in subjects with moderately to severely active RA who have an inadequate response to methotrexate (MTX) (oral or parenteral).
Twelve weeks of treatment with Compound 1 (dosed as a [Compound 1:HCl:3H2O]) at 50 mg, 100 mg, or 200 mg q.d.; or placebo. At Week 12, all subjects on placebo and the subjects on the 50 mg dose who have not achieved 20% improvement in swollen joint count (SJC66) and tender joint count (TJC68) will be assigned to 100 mg q.d. in a blinded fashion and will continue treatment until Week 24. Subjects in the other groups will maintain their randomized treatment until Week 24.
The atherogenic index has been identified to be a good predictor of cardiovascular disorders risks and is calculated as follows: […]

[1] = 50 mg q.d. non responders switching to 100 mg q.d., week 1
[2] = 50 mg q.d. non responders switching to 100 mg q.d., week 2
[3] = 50 mg q.d. non responders switching to 100 mg q.d., week 4
[4] = 50 mg q.d. non responders switching to 100 mg q.d., week 8
[5] = 50 mg q.d. non responders switching to 100 mg q.d., week 12
[6] = 50 mg q.d. non responders switching to 100 mg q.d., week 16
[7] = 50 mg q.d. non responders switching to 100 mg q.d., week 20
[8] = 50 mg q.d. non responders switching to 100 mg q.d., week 24

## O=C(Nc1nc2cccc(-c3ccc(CN4CCS(=O)(=O)CC4)cc3)n2n1)C1CC1 [Compound 1, cyclopropanecarboxylic acid {5-[4-(1,1-dioxo-thiomorpholin-4-ylmethyl)-phenyl]-[1,2,4]triazolo[1,5-a]pyridin-2yl}-amide]
[1]
  Atherogenic index Mean percentage CFB - 24 weeks results: −0.49%
  Atherogenic index Median CFB - 24 weeks results: 0.00 mmol/L
  Atherogenic index Median percentage CFB - 24 weeks results: 0.00%
[2]
  Atherogenic index Mean percentage CFB - 24 weeks results: 0.40%
  Atherogenic index Median CFB - 24 weeks results: -0.10 mmol/L
  Atherogenic index Median percentage CFB - 24 weeks results: −2.38%
[3]
  Atherogenic index Median CFB - 24 weeks results: -0.20 mmol/L
  Atherogenic index Median percentage CFB - 24 weeks results: −6.67%
[4]
  Atherogenic index Mean percentage CFB - 24 weeks results: 3.03%
  Atherogenic index Median CFB - 24 weeks results: -0.20 mmol/L
  Atherogenic index Median percentage CFB - 24 weeks results: −6.82%
[5]
  Atherogenic index Mean percentage CFB - 24 weeks results: −2.71%
  Atherogenic index Median CFB - 24 weeks results: -0.20 mmol/L
  Atherogenic index Median percentage CFB - 24 weeks results: −5.88%
[6]
  Atherogenic index Mean percentage CFB - 24 weeks results: −3.31%
  Atherogenic index Median CFB - 24 weeks results: -0.20 mmol/L
  Atherogenic index Median percentage CFB - 24 weeks results: −5.00%
[7]
  Atherogenic index Mean percentage CFB - 24 weeks results: −3.58%
  Atherogenic index Median CFB - 24 weeks results: -0.20 mmol/L
  Atherogenic index Median percentage CFB - 24 weeks results: −5.88%
[8]
  Atherogenic index Mean percentage CFB - 24 weeks results: −7.04%
  Atherogenic index Median CFB - 24 weeks results: -0.30 mmol/L
  Atherogenic index Median percentage CFB - 24 weeks results: −9.97%
50 mg q.d. responders, week 1
  Atherogenic index Mean percentage CFB - 24 weeks results: −0.34%
  Atherogenic index Median CFB - 24 weeks results: -0.10 mmol/L
50 mg q.d. responders, week 2
  Atherogenic index Mean percentage CFB - 24 weeks results: −3.56%
  Atherogenic index Median CFB - 24 weeks results: -0.05 mmol/L
50 mg q.d. responders, week 4
  Atherogenic index Mean percentage CFB - 24 weeks results: −2.87%
  Atherogenic index Median CFB - 24 weeks results: -0.25 mmol/L
  Atherogenic index Median percentage CFB - 24 weeks results: −7.69%
50 mg q.d. responders, week 8
  Atherogenic index Mean percentage CFB - 24 weeks results: −2.06%
  Atherogenic index Median CFB - 24 weeks results: -0.10 mmol/L
50 mg q.d. responders, week 12
  Atherogenic index Mean percentage CFB - 24 weeks results: 0.89%
  Atherogenic index Median CFB - 24 weeks results: -0.10 mmol/L
  Atherogenic index Median percentage CFB - 24 weeks results: −2.56%
50 mg q.d. responders, week 16
  Atherogenic index Mean percentage CFB - 24 weeks results: 1.59%
  Atherogenic index Median CFB - 24 weeks results: 0.00 mmol/L
  Atherogenic index Median percentage CFB - 24 weeks results: 0.00%
50 mg q.d. responders, week 20
  Atherogenic index Median CFB - 24 weeks results: -0.20 mmol/L
  Atherogenic index Median percentage CFB - 24 weeks results: −4.04%
50 mg q.d. responders, week 24
  Atherogenic index Median CFB - 24 weeks results: -0.20 mmol/L
  Atherogenic index Median percentage CFB - 24 weeks results: −5.77%
50 mg q.d., week 1
  Atherogenic index Mean CFB - 12 weeks results: 0.00 mmol/L
  Atherogenic index Mean percentage CFB - 12 weeks results: −0.38%
  Atherogenic index Median CFB - 12 weeks results: 0.00 mmol/L
  Atherogenic index Median percentage CFB - 12 weeks results: 0.00%
50 mg q.d., week 2
  Atherogenic index Mean CFB - 12 weeks results: -0.10 mmol/L
  Atherogenic index Median CFB - 12 weeks results: -0.10 mmol/L
  Atherogenic index Median percentage CFB - 12 weeks results: −2.38%
50 mg q.d., week 4
  Atherogenic index Mean CFB - 12 weeks results: -0.13 mmol/L
  Atherogenic index Mean percentage CFB - 12 weeks results: −2.63%
  Atherogenic index Median CFB - 12 weeks results: -0.20 mmol/L
  Atherogenic index Median percentage CFB - 12 weeks results: −7.69%
50 mg q.d., week 8
  Atherogenic index Mean CFB - 12 weeks results: -0.03 mmol/L
  Atherogenic index Mean percentage CFB - 12 weeks results: −0.95%
  Atherogenic index Median CFB - 12 weeks results: -0.10 mmol/L
  Atherogenic index Median percentage CFB - 12 weeks results: −2.70%
50 mg q.d., week 12
  Atherogenic index Mean CFB - 12 weeks results: 0.01 mmol/L
  Atherogenic index Mean percentage CFB - 12 weeks results: 0.09%
  Atherogenic index Median CFB - 12 weeks results: -0.10 mmol/L
  Atherogenic index Median percentage CFB - 12 weeks results: −3.85%
100 mg q.d., week 1
  Atherogenic index Mean CFB - 12 weeks results: -0.05 mmol/L
  Atherogenic index Mean percentage CFB - 12 weeks results: −0.84%
  Atherogenic index Mean percentage CFB - 24 weeks results: −0.84%
  Atherogenic index Median CFB - 12 weeks results: 0.00 mmol/L
  Atherogenic index Median CFB - 24 weeks results: 0.00 mmol/L
  Atherogenic index Median percentage CFB - 12 weeks results: 0.00%
  Atherogenic index Median percentage CFB - 24 weeks results: 0.00%
100 mg q.d., week 2
  Atherogenic index Mean CFB - 12 weeks results: -0.11 mmol/L
  Atherogenic index Mean percentage CFB - 12 weeks results: −2.82%
  Atherogenic index Mean percentage CFB - 24 weeks results: −2.82%
  Atherogenic index Median CFB - 12 weeks results: -0.20 mmol/L
  Atherogenic index Median CFB - 24 weeks results: -0.20 mmol/L
  Atherogenic index Median percentage CFB - 12 weeks results: −6.25%
  Atherogenic index Median percentage CFB - 24 weeks results: −6.25%
100 mg q.d., week 4
  Atherogenic index Mean CFB - 12 weeks results: -0.19 mmol/L
  Atherogenic index Mean percentage CFB - 12 weeks results: −4.17%
  Atherogenic index Mean percentage CFB - 24 weeks results: −4.17%
